Results on nine molecules are retold here after patent publication US9889129B2, “Method of modulating ribonucleotide reductase” (Case Western Reserve University, priority 2012, dated 2018).

Molecules are shown by their SMILES. pIC50: −log10 of the molar value. Like-named read-outs stand apart in the source and are kept apart here.

In series [1] the test system is A549 non-small cell lung cells; pancreatic cells (Panc-1); colon cells (HCT-116). Put plainly: MTT Assay II. In kind it is cell-based. The text has this:
We conducted an MTT assay to measure cell metabolism as a surrogate for cell number using A549, Non-Small Cell Lung cells; pancreatic cells (Panc-1); and colon cells (HCT-116).

For series [2], the system named is MDA-MB-231 human breast carcinoma cell line. Put plainly: Growth inhibition studies on MDA-MB-231. The class given is cell-based. The text has this:
Growth inhibition studies on MDA-MB-231 human breast carcinoma cell line in the presence of gemcitabine (F2CDP-red) or cis-platin (CDDP-blue) alone (solid lines), or in combination with a non-toxic does of compound 2 (dashed lines).
Growth of the MDA-MB-231 cancer cell line is inhibited by compound 3.

Series [3] has as its target T1, RR (Homo sapiens, UniProt P23921).
T1 sequence (P23921 1-792): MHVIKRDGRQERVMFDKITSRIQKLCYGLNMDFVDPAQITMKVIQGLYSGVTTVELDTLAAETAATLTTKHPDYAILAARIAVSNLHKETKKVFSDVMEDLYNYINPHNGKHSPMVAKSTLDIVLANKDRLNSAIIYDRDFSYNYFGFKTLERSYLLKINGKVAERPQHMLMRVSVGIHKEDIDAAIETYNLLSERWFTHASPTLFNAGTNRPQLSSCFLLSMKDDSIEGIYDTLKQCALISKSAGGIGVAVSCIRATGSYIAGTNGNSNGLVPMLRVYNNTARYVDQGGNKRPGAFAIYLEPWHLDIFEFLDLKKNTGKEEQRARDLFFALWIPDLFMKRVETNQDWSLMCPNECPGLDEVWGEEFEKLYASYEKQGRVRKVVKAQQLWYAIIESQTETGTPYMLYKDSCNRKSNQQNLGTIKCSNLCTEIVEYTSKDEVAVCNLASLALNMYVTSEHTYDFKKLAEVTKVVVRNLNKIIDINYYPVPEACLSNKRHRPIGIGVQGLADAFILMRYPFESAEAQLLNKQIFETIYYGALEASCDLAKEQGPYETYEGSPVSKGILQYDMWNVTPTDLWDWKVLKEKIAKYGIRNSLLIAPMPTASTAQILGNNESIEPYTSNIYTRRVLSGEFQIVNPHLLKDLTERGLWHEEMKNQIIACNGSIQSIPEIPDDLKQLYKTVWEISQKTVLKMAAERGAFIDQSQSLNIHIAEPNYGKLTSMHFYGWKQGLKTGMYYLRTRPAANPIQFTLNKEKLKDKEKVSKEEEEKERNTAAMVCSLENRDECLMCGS
The experiment in a line: RR inhibition by ligands with anticancer properties (Table 4).

Series [4] concerns A549 non-small cell lung cells; 231 triple negative breast cells; LN229. The experiment in a line: MTT Assay I. Particulars: continuous doses for three days; for pIC50: 72 h, range over A549, 231, LN229; for ACTIVITY: A549, 231, LN229. In kind it is cell-based. How it is done: We conducted an MTT assay to measure cell metabolism as a surrogate for cell number using A549, Non-Small Cell Lung cells; 231, Triple negative breast cells; and LN229. All values are relative to untreated controls, corrected for any MTT absorbance due to media alone.
The cells were treated with continuous doses of the indicated drugs for three days, at which time the MTT assay was run. The control is listed as a dose of 0.1 uM because we plot on a log scale and wish to avoid taking the log of 0 in the calculations.

Series [5] concerns ribonucleotide reductase activity. The experiment in a line: DNA synthesis assay.
Source text: The IC50 of a drug can be determined by constructing a
dose-response curve and examining the effect of different concentrations of a candidate agent on cell growth and/or ribonucleotide reductase enzyme activity. IC50 values can be calculated for a given compound by determining the concentration needed to inhibit half of the maximum biological response of the compound.
Where [6] appears, read: A549, Panc-1, HCT-116, read-out: IC50.

For the molecule `OC(COc1ccc(OCC(O)CN2CCN(C3c4ccccc4-c4ccccc43)CC2)cc1)CN1CCN(C2c3ccccc3-c3ccccc32)CC1` (stereo not shown) [Compound 2], in series [1] (setting [6]), the pIC50 was 5.10 to 5.52. Besides, in series [2] (combination with a non-toxic dose of compound 2), the “effect on cytotoxicity of gemcitabine or cis-platin” value was “increases cytotoxicity of gemcitabine of cis-platin”.
For `O=C(CC1CCCCC1)N/N=C\c1cccc2cccc(O)c12` [Compound 3], in series [2] (single agent), the “cytotoxicity / growth inhibition” value is given as “cytotoxic against human breast carcinoma cells”. For the same molecule, the pIC50 in series [3] is 6.65.
As to `O=C(CCCCCCCCC(=O)N/N=C/c1c(O)ccc2ccccc12)N/N=C/c1c(O)ccc2ccccc12` [Compound 1], the pIC50 in series [1] (setting [6]) and in series [3] was 5.70 to 6.22 in each case.
For `O=C(CCCCCCCCC(=O)N/N=C/c1c(O)ccc2ccccc12)N/N=C/c1c(O)ccc2ccccc12` [Drug 1], the pIC50 in series [4] was 5.70 to 6.10; in series [5], not below 6.00. Moreover, the ACTIVITY entry in series [4] is recorded as “Steady effect on all three cell lines”; in series [5] (DNA synthesis assay, exposed for 2 continuous days), “most potent”.
Take `Nc1ccn([C@@H]2O[C@H](CO)[C@@H](O)C2(F)F)c(=O)n1` [Gemcitabien, reference compound]: in series [1] (A549, Panc-1, HCT-116, read-out: IC50s), the pIC50 was 6.30 to 7.00.
With `OC(COc1ccc(OCC(O)CN2CCN(C3c4ccccc4-c4ccccc43)CC2)cc1)CN1CCN(C2c3ccccc3-c3ccccc32)CC1` (stereo not shown) [Drug 2], in series [4], the pIC50 is 4.92 to 5.52 and the ACTIVITY entry is “Shows an extremely dramatic effect”.
Molecule `OC(COc1ccc2c(c1)CCC2)CN1CCN(Cc2ccccc2)CC1` (stereo not shown) [Compound 4] had a pIC50 in series [3] of 5.00 to 5.30.
In the case of `Cc1c2c(c(O)c3c(O)ccc(Cl)c13)C(=O)C1(O)C(=O)C(C(=O)O)=C(O)C(N(C)C)C1C2` (stereo not shown) [Drug 4], in series [5], the pIC50 is 4.00 to 4.30.
`CCCCCCCCCCCCC(=O)NCC(=O)NC(CCCCN)C(=O)OC` (stereo not shown) [Compound 5]: the pIC50 in series [3] was 5.00 to 5.30.
